Marks after values point to notes of the source that are not given here.
Key:
[1] = Osmolality of API formulations (micro osmometer, triplicate); type: physicochemical
Experimental: Osmolality readings were obtained on an Advanced Instruments Advanced™ Micro Osmometer Model 3300 (Advanced Instruments, Inc. Norwood, MA, USA). Saline solutions (0.9% and 3%) were run as positive controls. Each sample was calculated as the mean from back-to-back triplicate measurements. When replicate batches were measured, data was reported as mean±SEM.
The procedure was performed on a 2 mL scale. […] Benzethonium chloride (20 μL of a 1% solution, 0.01% final concentration) was added via micropipette. The pH was adjusted to ˜7.00 with 2M sodium hydroxide, or either 1M or 2M HCl in some cases, and then the mixture was transferred to a 2 mL volumetric flask to be diluted with HPLC grade water. […]
Method 1: In a 5 mL borosilicate glass test tube which contained a Teflon-coated magnetic stir bar, Captisol®-Na+ ([…], H+ equivalents, moisture corrected) was dissolved in HPLC grade water (1.6-1.7 mL), API salt (HCl in most cases) (70 mg/mL FB equivalents) was added and the mixture was stirred until a homogenous transparent solution formed. Benzethonium chloride (20 μL of a 1% solution, giving a 0.01% final concentration) was added via micropipette. The pH was adjusted to ˜7.00 with 1M or 2M sodium hydroxide, or either 1M or 2M HCl in some cases, and then the mixture was transferred to a 2 mL volumetric flask to be diluted with HPLC grade water. […]
Benzethonium chloride (20 μL of a 1% solution, giving a 0.01% final concentration) was added via micropipette. The pH was adjusted to ˜7.00 with 1M or 2M sodium hydroxide, or either 1M or 2M HCl in some cases, and then the mixture transferred to a 2 mL volumetric flask to be diluted with HPLC grade water. […]
The solution was transferred to a 2 mL volumetric flask and diluted to the target volume with HPLC grade water. […]

[2] = pH of API formulations (pH meter); type: physicochemical
[3] = in water, cited from earlier work; for Reported Freebase Solubility: vendor or literature value
[4] = Dissolution of API freebase in aqueous CapAcid / Captisol solutions at defined API:CapAcid ratios, visual inspection and NaOH titration
[5] = API-CapAcid salts prepared in ethanol, then 70 mg of solid added to 1 mL water (visual); type: physicochemical; conditions: for dissolution of 70 mg of the ethanol-prepared API-CapAcid solid in 1 mL water: visual, vortexed
Experimental: The resulting solid API-CapAcid salts were then obtained as solids by evaporation of the ethanol, followed by lyophilization.
In a scintillation vial, a solution of API FB (100 mg) and CapAcid (1 molar equivalent, moisture corrected) was prepared by dissolving Cap Acid in 200 proof ethanol (5 mL) and then adding the freebase API. […] Whether or not the freebase dissolved after the second addition of ethanol, the initial pH, prior to titration, was recorded. The vial was then wrapped in foil and left uncovered in the hood to allow the ethanol to evaporate. After the ethanol fully evaporated, a small amount of HPLC grade water (3-5 mL) was added to each to see if the product would dissolve or become a suspension in the water. The solution was then lyophilized to remove the water. The product was ground with a stir rod and 70±0.1 mg was added to 1 mL of water to see if it would dissolve.

[6] = API FB CapAcid formulation, 70 mg/mL API FB, 1.1 equivalents CapAcid (H^+ equivalents), after titration
[7] = CapAcid-API Freebase Formulation (70 mg/mL API FB, 1.1 molar equivalent CapAcid), after pH titration with NaOH or HCl
[8] = 70 mg/mL API FB, 1.1 equivalents CapAcid, before NaOH/HCl
[9] = API Salt (70 mg/mL API Salt in FB equivalent) in water
[10] = API salt Captisol®-Na^+ formulation, 70 mg/mL FB equivalent, 1.1 equivalents Captisol®-Na^+
[11] = Captisol®-Na^+ formulation, 70 mg/mL API Salt in FB equivalent, 1.1 molar equivalent Captisol®-Na^+
[12] = 70 mg/mL API salt (FB equivalent), 1.1 equivalents Captisol®-Na^+, before NaOH
[13] = CapAcid-API Freebase Formulation (70 mg/mL API FB, 1.1 molar equivalent CapAcid), final pH after titration and dilution
[14] = Captisol®-Na^+ formulation, 70 mg/mL API Salt in FB equivalent, 1.1 molar equivalent Captisol®-Na^+, final pH
[15] = API salt 70 mg/mL (FB equivalents) in water

Nc1ccncc1N [Amifampridine, Pyridine-3,4-diamine]
Osmolality ([1]; 70 mg/mL API FB and 1 equivalent of 6M HCl in water): 740.3 mOsmol/kg | Osmolality ([1]; 70 mg/mL API FB, 1 equivalent of 6M HCl, 1.1 equivalents Captisol®-Na^+): 1023.3 mOsmol/kg | Osmolality ([1]; *70 mg/mL API FB + molar equivalent of 6M HCl in water): 740.3*^ mOsm/kg | Osmolality [1, 6]: 532.7 mOsmol/kg | Osmolality [1, 7]: 532.7** mOsm/kg | Osmolality ([1]; Captisol®-Na^+ formulation, *70 mg/mL API FB + 6M HCl, 1.1 molar equivalent Captisol®-Na^+): 1,023.3* mOsm/kg | pH of the solution prior to titration ([2]; 70 mg/mL API FB, 1 equivalent 6M HCl, 1.1 equivalents Captisol®-Na^+, before NaOH/HCl): 9.27 | pH of the solution prior to titration [2, 8]: 9.19 | Reported Freebase Solubility [3]: 7000 µg/mL

NC12CC3CC(CC(C3)C1)C2 [1-Amantadine]
Osmolality [1, 6]: 411.6 mOsmol/kg | Osmolality [1, 9]: 832 mOsm/kg | Osmolality [1, 10]: 1,446.7 mOsmol/kg | Osmolality [1, 7]: 411.6 mOsm/kg | Osmolality [1, 11]: 1,446.7 mOsm/kg | pH of the solution prior to titration [2, 8]: 1.43 | pH of the solution prior to titration [2, 12]: 3.93 | pH [2, 9]: 5.67 | pH [2, 13]: 6.97 | pH [2, 14]: 6.99

CC[C@H](C)C[C@H](C)CCCCCCCCC(=O)N[C@H]1C[C@@H](O)[C@@H](NCCN)NC(=O)[C@@H]2[C@@H](O)CCN2C(=O)[C@H]([C@H](O)CCN)NC(=O)[C@H]([C@H](O)[C@@H](O)c2ccc(O)cc2)NC(=O)[C@@H]2C[C@@H](O)CN2C(=O)[C@H]([C@@H](C)O)NC1=O [Caspofungin]
Osmolality [1, 6]: 59 mOsmol/kg | Osmolality [1, 9]: 94 mOsm/kg | Osmolality [1, 15]: 94 mOsmol/kg | Osmolality [1, 10]: 209.3 mOsmol/kg | Osmolality [1, 7]: 59** mOsm/kg | Osmolality [1, 11]: 209.3 mOsm/kg | pH of the solution prior to titration [2, 8]: 7.78 | pH of the solution prior to titration [2, 12]: 6.13 | pH [2, 9]: 5.86 | pH [2, 14]: 7.04

C=CCN1CC[C@]23c4c5ccc(O)c4O[C@H]2C(=O)CC[C@@]3(O)[C@H]1C5 [Naloxone]
Osmolality [1, 9]: 279 mOsm/kg | Osmolality [1, 15]: 279 mOsmol/kg | Osmolality [1, 10]: 531.7 mOsmol/kg | Osmolality [1, 7]: 139.7 mOsm/kg | Osmolality [1, 11]: 531.7 mOsm/kg | pH [2, 9]: 4.39 | pH [2, 13]: 6.01 | pH [2, 14]: 5.98 | Reported Freebase Solubility [3]: 1415 µg/mL | Reported Salt Solubility [3]: 50 mg/mL^13 | pH past which the freebase crashed out ([4]; 70 mg/mL FB, 1.1 equivalents CapAcid): > 6.00

COc1ccccc1OCCNCC(O)COc1cccc2[nH]c3ccccc3c12 (stereo not shown) [Carvedilol]
pH of the ethanol solution prior to titration ([5]; API FB 100 mg + CapAcid 1 molar equivalent (H^+) in 10 mL 200 proof ethanol): 0.82 | dissolution of 70 mg of the ethanol-prepared API-CapAcid solid in 1 mL water ([5]; Method 2 solid): insoluble solution | dissolution of 70 mg of the ethanol-prepared API-CapAcid solid in 1 mL water [5]: insoluble solution

COC(=O)[C@@H](N)Cc1ccc(O)c(O)c1 [Melevodopa]
Osmolality [1, 6]: 605.7 mOsmol/kg | Osmolality [1, 7]: 605.7 mOsm/kg | pH of the solution prior to titration [2, 8]: 1.22 | pH [2, 13]: 6.97

Cc1ncc2n1-c1ccc(Cl)cc1C(c1ccccc1F)=NC2 [Midazolam]
final pH of the solution ([2]; 3:1 ratio, after 0.5 M HCl redissolved the solid): 2.86 | pH when solids began to crash out ([2]; 3:1 ratio, after 360 μL total 2M NaOH): 2.92 | highest achievable pH without precipitation of freebase solids ([4]; 3:1 ratio of API to CapAcid (relative to the cyclodextrin), 300.8 mg FB in 10 mL water): 3.15 | dissolution by visual inspection ([4]; 3:1 ratio of API to CapAcid (relative to the cyclodextrin), 10 mL water): transparent colorless solution | dissolution by visual inspection ([4]; CapAcid 1 molar equivalent relative to H^+, 300.8 mg FB in 10 mL water, 30 minutes): cloudy suggesting incomplete dissolution

COc1ccc2c(c1)[C@]13CCCC[C@@H]1[C@H](C2)N(C)CC3 [DXM]
solubility as stoichiometric (6.5:1) CapAcid salt compared with known API salts, in words ([4]; 70 mg/mL formulations): dramatic improvement in solubility

NC1C2CC3CC(C2)CC1C3 (stereo not shown) [2-Amantadine]
Osmolality [1, 6]: 435.7 mOsmol/kg | Osmolality [1, 9]: 826.7 mOsm/kg | Osmolality [1, 10]: 1,492.7 mOsmol/kg | Osmolality [1, 7]: 435.7 mOsm/kg | Osmolality [1, 11]: 1492.7 mOsm/kg | pH of the solution prior to titration [2, 8]: 1.29 | pH of the solution prior to titration [2, 12]: 5.63 | pH [2, 9]: 6.94 | pH [2, 13]: 7.06 | pH [2, 14]: 7.01

CCC(CC)COC(=O)[C@H](C)N[P@](=O)(OC[C@H]1O[C@@](C#N)(c2ccc3c(N)ncnn23)[C@H](O)[C@@H]1O)Oc1ccccc1 [Remdesivir]
Reported Freebase Solubility [3]: Insoluble^15

Source: US20250345458A1, “COMPLEXING AGENT SALT FORMULATIONS OF PHARMACEUTICAL COMPOUNDS AT LOW STOICHIOMETRIC RATIOS” (Bexson Biomedical, Inc., priority 2022, published 2025)
